The results in this text go back to patent US8741906B2 (priority 2011, dated 2014).

Where two headings read alike, the source gives them in different places.

One assay addresses T1, human CB2 receptors (Homo sapiens, UniProt P34972).
T1 construct: expressed in transfected cells; host or cells: CHO cells
The assay can be described thus: functional cAMP assay, human CB2. The conditions noted are these: CHO cells expressing human CB2, cAMP; read-out: human CB2 EC50. The format is cell-based. Summed up: (§1)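 CHO cells with human CB1 or CB2 were switched to Krebs Ringer bicarbonate buffer with 1 mM IBMX for 30 min at 30 °C, then given compound for 30 min at 30 °C. cAMP was measured by time-resolved FRET against a cAMP standard curve, and EC50 values were calculated.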

A further assay addresses T2, human CB1 receptors (Homo sapiens, UniProt P21554).
T2 construct: expressed in transfected cells; host or cells: CHO cells
The experiment in a line: functional cAMP assay, human CB1. It counts as cell-based. Summed up:
as §1

Setting [1] is: CHO cells expressing human CB1, cAMP, read-out: human CB1 EC50.

T2 sequence (P21554 whole entry): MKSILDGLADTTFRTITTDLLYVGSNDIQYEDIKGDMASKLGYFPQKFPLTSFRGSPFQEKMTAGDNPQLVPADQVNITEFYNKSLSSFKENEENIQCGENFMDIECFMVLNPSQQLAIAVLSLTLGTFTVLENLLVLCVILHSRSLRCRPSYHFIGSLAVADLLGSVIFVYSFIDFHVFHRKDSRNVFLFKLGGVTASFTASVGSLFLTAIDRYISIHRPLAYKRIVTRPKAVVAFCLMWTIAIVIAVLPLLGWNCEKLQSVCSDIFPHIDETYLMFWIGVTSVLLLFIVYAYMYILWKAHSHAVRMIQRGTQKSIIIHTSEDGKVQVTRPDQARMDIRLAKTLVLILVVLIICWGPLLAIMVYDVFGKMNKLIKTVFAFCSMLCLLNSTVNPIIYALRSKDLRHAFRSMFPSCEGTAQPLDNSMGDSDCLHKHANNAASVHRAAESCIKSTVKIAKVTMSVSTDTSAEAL
T1 sequence (P34972 whole entry): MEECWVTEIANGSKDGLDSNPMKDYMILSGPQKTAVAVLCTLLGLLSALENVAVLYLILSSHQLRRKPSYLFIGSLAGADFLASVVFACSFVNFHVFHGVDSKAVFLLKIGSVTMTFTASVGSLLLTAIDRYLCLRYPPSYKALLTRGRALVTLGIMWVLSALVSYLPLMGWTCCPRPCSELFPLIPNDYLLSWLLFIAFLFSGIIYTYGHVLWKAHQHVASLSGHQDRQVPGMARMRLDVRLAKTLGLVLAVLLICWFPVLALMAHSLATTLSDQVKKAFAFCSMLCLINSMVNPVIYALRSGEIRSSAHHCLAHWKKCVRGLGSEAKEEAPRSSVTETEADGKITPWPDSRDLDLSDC

`Cc1cc(Cn2nnc3c(N4CCC(F)(F)C4)nc(C(C)(C)C)nc32)n(C)n1` [Example 144, 5-tert-Butyl-7-(3,3-difluoro-pyrrolidin-1-yl)-3-(2,5-dimethyl-2H-pyrazol-3-ylmethyl)-3H-[1,2,3]triazolo[4,5-d]pyrimidine]: the EC50 was found to be 0.4 nM on human CB2 receptors and 123 nM on human CB1 receptors (setting [1]).
On the same counts, the results for `CC(C)(C)c1nc(N2CCC(F)(F)C2)c2nnn(CC(=O)c3ccncc3)c2n1` [Example 118, 2-[5-tert-Butyl-7-(3,3-difluoro-pyrrolidin-1-yl)-[1,2,3]triazolo[4,5-d]pyrimidin-3-yl]-1-pyridin-4-yl-ethanone] are 0.9 nM and > 10000 nM.
On the same counts, the results for `CC1(Cn2nnc3c(N4CCC(F)(F)C4)nc(C(C)(C)C)nc32)COC1` [Example 114, 5-tert-Butyl-7-(3,3-difluoro-pyrrolidin-1-yl)-3-(3-methyl-oxetan-3-ylmethyl)-3H-[1,2,3]triazolo[4,5-d]pyrimidine] are 0.4 nM and > 10000 nM.
On the same counts, the results for `CC(C)(C)c1nc(N2CC[C@H](O)[C@@H]2CO)c2nnn(Cc3cccnc3Cl)c2n1` [Example 172, (2S,3S)-1-[5-tert-Butyl-3-(2-chloro-pyridin-3-ylmethyl)-3H-[1,2,3]triazolo[4,5-d]pyrimidin-7-yl]-2-hydroxymethyl-pyrrolidin-3-ol] are 4.1 nM and > 10000 nM.
As for `Cn1ncnc1Cn1nnc2c(N3CC[C@H](O)C3)nc(C(C)(C)C)nc21` [Example 152, (S)-1-[5-tert-Butyl-3-(2-methyl-2H-[1,2,4]triazol-3-ylmethyl)-3H-[1,2,3]triazolo[4,5-d]pyrimidin-7-yl]-pyrrolidin-3-ol], the values for the EC50 at human CB2 receptors and at human CB1 receptors (setting [1]) were 10.5 nM and > 10000 nM, respectively.
On the same counts, the results for `C[C@@H](c1ccccc1Cl)n1nnc2c(N3CCC(F)(F)C3)nc(C(C)(C)C)nc21` [Example 87] are 1 nM and 270 nM.
On the same counts, the results for `Cc1nnc(Cn2nnc3c(N4CC[C@H](O)C4)nc(C(C)(C)C)nc32)n1C` [Example 153, (S)-1-[5-tert-Butyl-3-(4,5-dimethyl-4H-[1,2,4]triazol-3-ylmethyl)-3H-[1,2,3]triazolo[4,5-d]pyrimidin-7-yl]-pyrrolidin-3-ol] are 11.9 nM and > 10000 nM.
In the case of `CC(C)(C)c1nc(N2CCC(F)(F)C2)c2nnn(CC(=O)c3ccc(Cl)cc3)c2n1` [Example 116, 2-[5-tert-Butyl-7-(3,3-difluoro-pyrrolidin-1-yl)-[1,2,3]triazolo[4,5-d]pyrimidin-3-yl]-1-(4-chloro-phenyl)-ethanone], the EC50 on human CB2 receptors is 3 nM; at human CB1 receptors (setting [1]), > 10000 nM.
For `Cc1nonc1Cn1nnc2c(N3CC(F)(F)C(F)(F)C3)nc(C(C)(C)C)nc21` [Example 173, 5-tert-Butyl-3-(4-methyl-furazan-3-ylmethyl)-7-(3,3,4,4-tetrafluoro-pyrrolidin-1-yl)-3H-[1,2,3]triazolo[4,5-d]pyrimidine], in that order: 0.3 nM and > 10000 nM.
For `CCn1nnc2c(N3CCC(F)(F)C3)nc(C(C)(C)C)nc21` [Example 61, 5-tert-butyl-7-(3,3-difluoropyrrolidin-1-yl)-3-ethyl-3H-[1,2,3]triazolo[4,5-d]pyrimidine], in that order: 13.2 nM and > 10000 nM.
On the same counts, the results for `CC(C)(C)c1nc(N2CC[C@](C)(O)C2)c2nnn(Cc3nnnn3C3CC3)c2n1` [Example 230-a, (S)-1-(5-tert-butyl-3-((1-cyclopropyl-1H-tetrazol-5-yl)methyl)-3H-[1,2,3]triazolo[4,5-d]pyrimidin-7-yl)-3-methylpyrrolidin-3-ol] are 2.7 nM and > 10000 nM.
On to `CCOc1nc(C(C)(C)C)nc2c1nnn2Cc1ccccc1Cl` [Example 208, 5-tert-Butyl-3-(2-chloro-benzyl)-7-ethoxy-3H-[1,2,3]triazolo[4,5-d]pyrimidine], for which the EC50 is 9.2 nM at human CB2 receptors and > 10000 nM at human CB1 receptors (setting [1]).
As to `COc1ccc(Cn2nnc3c(N4CCC(F)(F)C4)nc(C(C)(C)C)nc32)cc1` [Example 60, 5-tert-Butyl-7-(3,3-difluoro-pyrrolidin-1-yl)-3-(4-methoxy-benzyl)-3H-[1,2,3]triazolo[4,5-d]pyrimidine], the 50% effective concentration (EC50) on human CB2 receptors was 2.5 nM; at human CB1 receptors (setting [1]), > 10000 nM.
As for `Cn1nncc1Cn1nnc2c(N3CC(F)(F)C(F)(F)C3)nc(C(C)(C)C)nc21` [Example 178, 5-tert-Butyl-3-(3-methyl-3H-[1,2,3]triazol-4-ylmethyl)-7-(3,3,4,4-tetrafluoro-pyrrolidin-1-yl)-3H-[1,2,3]triazolo[4,5-d]pyrimidine], the values for the EC50 on human CB2 receptors and on human CB1 receptors (setting [1]) were 0.9 nM and 1890 nM, respectively.
Turning to `CC(C)(C)c1nc(N2CC[C@@](C)(O)C2)c2nnn(CCC(F)(F)F)c2n1` [Example 229-b, (R)-1-(5-tert-butyl-3-(3,3,3-trifluoropropyl)-3H-[1,2,3]triazolo[4,5-d]pyrimidin-7-yl)-3-methylpyrrolidin-3-ol], the EC50 is 37.4 nM at human CB2 receptors and > 10000 nM at human CB1 receptors (setting [1]).
For `Cc1nc(Cn2nnc3c(N4CCC(F)(F)C4)nc(C(C)(C)C)nc32)no1` [Example 130, 5-tert-Butyl-7-(3,3-difluoro-pyrrolidin-1-yl)-3-(5-methyl-[1,2,4]oxadiazol-3-ylmethyl)-3H-[1,2,3]triazolo[4,5-d]pyrimidine], in that order: 0.5 nM and 564 nM.
On to `Cc1nonc1Cn1nnc2c(N3CCC(F)(F)C3)nc(C(C)(C)C)nc21` [Example 101, 5-tert-Butyl-7-(3,3-difluoro-pyrrolidin-1-yl)-3-(4-methyl-furazan-3-ylmethyl)-3H-[1,2,3]triazolo[4,5-d]pyrimidine], for which the half-maximal effective concentration (EC50) on human CB2 receptors was 0.1 nM; at human CB1 receptors (setting [1]) it was > 10000 nM.
With `CC(C)(C)c1nc(N2CCC(F)(F)C2)c2nnn(CCc3ccncc3)c2n1` [Example 122, 5-tert-Butyl-7-(3,3-difluoro-pyrrolidin-1-yl)-3-(2-pyridin-4-yl-ethyl)-3H-[1,2,3]triazolo[4,5-d]pyrimidine], the EC50 at human CB2 receptors is 1.3 nM; at human CB1 receptors (setting [1]), > 10000 nM.
As to `CC(C)(C)c1nc(N2CCC[C@H]2CN)c2nnn(Cc3ccccc3Cl)c2n1` [Example 199, C-{(S)-1-[5-tert-Butyl-3-(2-chloro-benzyl)-3H-[1,2,3]triazolo[4,5-d]pyrimidin-7-yl]-pyrrolidin-2-yl}-methylamine], the EC50 at human CB2 receptors is 183 nM; on human CB1 receptors, > 10000 nM.
